Measured values published in patent US10894040B2, “S1P modulating agents” (BIOGEN MA INC., priority 2011, dated 2021).
pEC50: −log10 of the molar value.

Test system: A2B5+ OPCs
Experiment: OPC differentiation assay
Format: cell-based, Sprague Dawley rats
Conditions: 3-day incubation; for activity in the OPC assay at 2 micromolar / activity in the OPC assay at 20 micromolar: symbols not defined in the patent; for pEC50: Rattus norvegicus, 72 h, MSD analysis
Method: OPC Differentiation Assay
Enriched populations of oligodendrocytes were grown from post-natal day 2 (P2) female Sprague Dawley rats. The forebrain was dissected out and placed in Hank's buffered saline solution (HBSS; Invitrogen, Grand Island, N.Y.). The tissue was cut into 1 mm fragments and incubated at 37° C. for 15 minutes in 0.01% trypsin and 10 μg/mL DNase. Dissociated cells were plated on poly-L-lysine-coated T75 tissue culture flasks and grown at 37° C. for 10 days in Dulbecco's modified Eagle's medium (DMEM) with 20% fetal calf serum (Invitrogen). A2B5^+ OPCs were collected by shaking the flask overnight at 200 rpm and 37° C., resulting in a 95% pure population.
For the differentiation assay, 2 μM and 20 μM antagonist or the same concentrations of vehicle (DMSO) were applied to OPCs cultured in CNTF/T3 containing media. After a 3-day incubation, […], cell were lysed and then subjected to MSD (Meso Scale Discovery-R) analysis. EC50 was calculated by Prism using a nonlinear sigmoidal dose-response curvecells. Alternatively, cells were lysed in 80 μL lysis buffer (50 mM HEPES [4-(2-hydroxyethyl)-1-piperazineethanesulfonic acid], pH 7.5, 150 mM NaCl, 1.5 mM MgCl2, 1 mM ethylene glycol tetraacetic acid [EGTA], 1% Triton X-100 and 10% glycerol) for 30 minutes at 4° C. After centrifugation at 14,000 g for 15 minutes, the supernatants were boiled in Laemmli sample buffer, subjected to 4-20% SDS-PAGE, and analyzed by Western blotting with anti-MBP, anti-myelin-associated glycoprotein (MAG), or anti-beta actin antibodies. The secondary antibodies used were anti-mouse IgG-HRP (horseradish peroxidase) and anti-rabbit IgG-HRP respectively.

Compound: CCCCC1CCC(Oc2ccc3cc(CN4CCC(C(=O)O)CC4)ccc3c2)CC1 (mixture of isomers) [Example 32, 1-((6-(4-Butylcyclohexyloxy)naphthalen-2-yl)methyl)piperidine-4-carboxylic acid]
- activity in the OPC assay at 2 micromolar: + to ++++
- activity in the OPC assay at 20 micromolar: + to ++++
- pEC50: > 5.00

Compound: CC(C)(C)[C@H]1CC[C@H](Oc2ccc3nc(CN4CCC(C(=O)O)CC4)ncc3c2)CC1 [Example 15, 1-((6-(trans-4-tert-Butylcyclohexyloxy)quinazolin-2-yl)methyl)piperidine-4-carboxylic acid]
- activity in the OPC assay at 2 micromolar: + to ++++

Compound: CC(C)(C)[C@H]1CC[C@H](Oc2ccc3cc(C(N4CCC(C(=O)O)CC4)C(F)(F)F)ccc3c2)CC1 (stereo partly drawn) [Example 22, 1-(1-(6-(trans-4-tert-Butylcyclohexyloxy)naphthalen-2-yl)-2,2,2-trifluoroethyl)piperidine-4-carboxylic acid]
- activity in the OPC assay at 2 micromolar: + to ++++
- activity in the OPC assay at 20 micromolar: + to ++++
- pEC50: > 5.00

Compound: CC(C)C1CCC(Oc2ccc3cc(CN4CCC(C(=O)O)CC4)ccc3c2)CC1 (stereo not shown) [Example 24, 1-((6-(4-Isopropylcyclohexyloxy)naphthalen-2-yl)methyl)piperidine-4-carboxylic acid]
- pEC50: > 5.00

Compound: CC(C)(C)[C@H]1CC[C@@H](Oc2ccc3cc(CN4CCC(C(=O)O)CC4)ccc3c2)CC1 [Example 26, 1-((6-(cis-4-tert-Butylcyclohexyloxy)naphthalen-2-yl)methyl)piperidine-4-carboxylic acid]
- activity in the OPC assay at 20 micromolar: + to ++++
- pEC50: > 5.00

Compound: CCC1CCC(Oc2ccc3cc(CN4CCC(C(=O)O)CC4)ccc3c2)CC1 (stereo not shown) [Example 30, 1-((6-(4-Ethylcyclohexyloxy)naphthalen-2-yl)methyl)piperidine-4-carboxylic acid]
- activity in the OPC assay at 2 micromolar: + to ++++
- activity in the OPC assay at 20 micromolar: + to ++++
- pEC50: > 5.00

Compound: O=C(O)C1CCN(Cc2ccc3cc(OC4CCC5(CCCC5)CC4)ccc3c2)CC1 [Example 34, 1-((6-(Spiro[4.5]decan-8-yloxy)naphthalen-2-yl)methyl)piperidine-4-carboxylic acid]
- activity in the OPC assay at 20 micromolar: + to ++++

Compound: CC[C@H]1CC[C@@H](Oc2ccc3cc(CN4CCC(C(=O)O)CC4)ccc3c2)CC1 [Example 36, 1-((6-(cis-4-Ethylcyclohexyloxy)naphthalen-2-yl)methyl)piperidine-4-carboxylic acid]
- activity in the OPC assay at 2 micromolar: + to ++++
- activity in the OPC assay at 20 micromolar: + to ++++

Compound: CC[C@H]1CC[C@H](Oc2ccc3cc(CN4CCC(C(=O)O)CC4)ccc3c2)CC1 [Example 38, 1-((6-(trans-4-Ethylcyclohexyloxy)naphthalen-2-yl)methyl)piperidine-4-carboxylic acid]
- activity in the OPC assay at 20 micromolar: + to ++++

Compound: CC(C)(C)[C@H]1CC[C@H](Oc2ccc3nc(CN4CCC(C(=O)O)CC4)ccc3c2)CC1 [Example 42, 1-((6-(trans-4-tert-Butylcyclohexyloxy)quinolin-2-yl)methyl)piperidine-4-carboxylic acid]
- activity in the OPC assay at 2 micromolar: + to ++++
- activity in the OPC assay at 20 micromolar: + to ++++
- pEC50: > 5.00

Compound: CC(C)(C)[C@H]1CC[C@H](Oc2ccc3cc(C(=O)N4CCC(C(=O)O)CC4)ccc3c2)CC1 [Example 48, 1-(6-(trans-4-tert-Butylcyclohexyloxy)-2-naphthoyl)piperidine-4-carboxylic acid]
- activity in the OPC assay at 2 micromolar: + to ++++
- activity in the OPC assay at 20 micromolar: + to ++++

Compound: CC(C)(C)C1CCC(=Cc2ccc3cc(CN4CCC(C(=O)O)CC4)ccc3c2)CC1 (stereo not shown) [Example 52, 1-((6-((4-tert-Butylcyclohexylidene)methyl)naphthalen-2-yl)methyl)piperidine-4-carboxylic acid]
- activity in the OPC assay at 20 micromolar: + to ++++

Compound: CC(C)(C)[C@H]1CC[C@H](Oc2ccc3cc(CN4CCC(C(=O)O)CC4)ccc3n2)CC1 [Example 55, 1-((2-(trans-4-tert-Butylcyclohexyloxy)quinolin-6-yl)methyl)piperidine-4-carboxylic acid]
- activity in the OPC assay at 2 micromolar: + to ++++

Compound: CCC1(C(=O)O)CCN(Cc2ccc3cc(O[C@H]4CC[C@H](C(C)(C)C)CC4)ccc3c2)CC1 [Example 56, 1-[6-(4-tert-Butyl-cyclohexyloxy)-naphthalen-2-ylmethyl]-4-ethyl-piperidine-4-carboxylic acid]
- activity in the OPC assay at 2 micromolar: + to ++++

Compound: CCCC1(C(=O)O)CCN(Cc2ccc3cc(O[C@H]4CC[C@H](C(C)(C)C)CC4)ccc3c2)CC1 [Example 57, 1-[6-(4-tert-Butyl-cyclohexyloxy)-naphthalen-2-ylmethyl]-4-propyl-piperidine-4-carboxylic acid]
- activity in the OPC assay at 2 micromolar: + to ++++
- activity in the OPC assay at 20 micromolar: + to ++++

Compound: CC1CN(Cc2ccc3cc(O[C@H]4CC[C@H](C(C)(C)C)CC4)ccc3c2)CCC1C(=O)O (stereo partly shown) [Example 58, 1-[6-(4-tert-Butyl-cyclohexyloxy)-naphthalen-2-ylmethyl]-3-methyl-piperidine-4-carboxylic acid]
- activity in the OPC assay at 2 micromolar: + to ++++
- activity in the OPC assay at 20 micromolar: + to ++++
- pEC50: > 5.00

Compound: CC(C)(C)[C@H]1CC[C@H](Oc2ccc3cc(CN4CCC(C(=O)O)(c5ccccc5)CC4)ccc3c2)CC1 [Example 59, 1-[6-(4-tert-Butyl-cyclohexyloxy)-naphthalen-2-ylmethyl]-4-phenyl-piperidine-4-carboxylic acid]
- activity in the OPC assay at 2 micromolar: + to ++++

Compound: CC(C)(C)[C@H]1CC[C@H](Oc2ccc3cc(CN4CCCC(C(=O)O)CC4)ccc3c2)CC1 (stereo partly shown) [Example 60, 1-[6-(4-tert-Butyl-cyclohexyloxy)-naphthalen-2-ylmethyl]-perhydro-azepine-4-carboxylic acid]
- activity in the OPC assay at 2 micromolar: + to ++++
- pEC50: > 5.00

Compound: CC(C)(C)[C@H]1CC[C@H](Oc2ccc3cc(CN4CCC(O)(C(=O)O)CC4)ccc3c2)CC1 [Example 61, 1-[6-(4-tert-Butyl-cyclohexyloxy)-naphthalen-2-ylmethyl]-4-hydroxy-piperidine-4-carboxylic acid]
- activity in the OPC assay at 2 micromolar: + to ++++
- activity in the OPC assay at 20 micromolar: + to ++++
- pEC50: > 5.00

Compound: CC(C)(C)[C@H]1CC[C@H](Oc2ccc3cc(CN4CCC(CC(=O)O)CC4)ccc3c2)CC1 [Example 62, {1-[6-(4-tert-Butyl-cyclohexyloxy)-naphthalen-2-ylmethyl]-piperidin-4-yl}-acetic acid]
- activity in the OPC assay at 2 micromolar: + to ++++
- activity in the OPC assay at 20 micromolar: + to ++++

Compound: CC(C)(C)[C@H]1CC[C@H](Oc2ccc3cc(CN4CCC(C(=O)O)CC4)ncc3c2)CC1 [Example 75, 1-[7-(trans-4-tert-Butyl-cyclohexyloxy)-isoquinolin-3-ylmethyl]-piperidine-4-carboxylic acid]
- activity in the OPC assay at 2 micromolar: + to ++++
- activity in the OPC assay at 20 micromolar: + to ++++
